{"source": "patent US10428074B2", "about": "“Pyrrole heteroaryl ring derivative and method of use thereof” (Jiangsu Hengrui Medicine Co., Ltd., priority 2011, dated 2019)"}
{"tested_on": "human erythroid leukemia cell line TF-1", "assay": "Proliferation inhibition assay on TF-1 cells mediated by IL-4", "format": "cell-based", "conditions": "10 ng/mL IL-4, 72 hours", "source_text": "(§1) The following in vitro assay is to determine the activity of the compounds of the present invention for inhibiting the proliferation of human erythroid leukemia cell line TF-1.\n(§2) The activity is represented by the IC50 value, which can not only reflect the activity of a test compound for inhibiting JAK2 and JAK3 kinase, but can also reflect the selectivity of a test compound for JAK2 and JAK3 kinase.\n(§3) The general procedures of the assay are given as follows: first, the TF-1 cells (purchased from ATCC, Catalog number: CRL 2003) were seeded in a 96-well cell culture plate at a suitable cell concentration (8000 cells/mL medium), and 10 ng/mL IL-4 (Invitrogen, Catalog Number: PHC0044) were added to each well. Then 10× serial concentration gradient of test compounds solutions (10000, 1000, 100, 10, 1 and 0.1 nM) were prepared, and then the 10× compound solutions prepared above were added to the 96-well cell culture plate containing IL-4. After the cell plates were cultured continuously for 72 hours, the activity of the test compounds for inhibiting the cell proliferation was determined by using a Cell Counting Kit-8 (purchased from Dojindo, Catalog Number: CK04). IC50 values were calculated from the data of the inhibition rates at various concentrations of the test compounds.", "units": {"IC50": "nM"}}
{"smiles": "CN(c1ncnc2[nH]ccc12)[C@@H]1C[C@@H]2CN(C(=O)OC(C)(C)C)C[C@]2(C)C1", "note": "(racemic) [Example 1, (3aR,5R,6aS/3aS,5S,6aR)-tert-butyl-3a-methyl-5-(methyl(7H-pyrrolo[2,3-d]pyrimidin-4-yl)amino)hexahydro cyclopenta[c]pyrrole-2(1H)-carboxylate]", "IC50": 196}
{"smiles": "CN(c1ncnc2[nH]ccc12)[C@H]1C[C@@H]2CN(C(=O)OC(C)(C)C)C[C@@H]2C1", "note": "[Example 5, (3aR,5S,6aS)-tert-Butyl 5-(methyl(7H-pyrrolo[2,3-d]pyrimidin-4-yl)amino)hexahydro cyclopenta[c]pyrrole-2(1H)-carboxylate]", "IC50": 133}
{"smiles": "CN(c1ncnc2[nH]ccc12)[C@H]1C[C@@H]2CN(C(=O)CC#N)C[C@@H]2C1", "note": "[Example 8, 3-((3 aR,5S,6aS)-5-(Methyl(7H-pyrrolo[2,3-d]pyrimidin-4-yl)amino)hexahydrocyclopenta[c]pyrrol-2(1H)-yl)-3-oxopropanenitrile]", "IC50": 530}
{"smiles": "CC(=O)N1C[C@H]2C[C@H](N(C)c3ncnc4[nH]ccc34)C[C@H]2C1", "note": "[Example 11, 1-((3aR,5S,6aS)-5-(Methyl(7H-pyrrolo[2,3-d]pyrimidin-4-yl)amino)hexahydrocyclopenta[c]pyrrol-2(1H)-yl)ethanone]", "IC50": 507}
{"smiles": "CN(c1ncnc2[nH]ccc12)C1C[C@@H]2CCN(C(=O)CC#N)C[C@@H]2C1", "note": "(stereo partly drawn) [Example 39, 3-((4aS,7aR)-6-(Methyl(7H-pyrrolo[2,3-d]pyrimidin-4-yl)amino)hexahydro-1H-cyclopenta[c]pyridin-2(3H,4H,4aH,5H,6H,7H,7aH)-yl)-3-oxopropanenitrile]", "IC50": 419}
{"smiles": "Cc1noc(N2C[C@H]3C[C@H](N(C)c4ncnc5[nH]ccc45)C[C@H]3C2)n1", "note": "[Example 61, N-methyl-N-((3aR,5S,6aS)-2-(3-methyl-1,2,4-oxadiazol-5-yl)octahydrocyclopenta[c]pyrrol-5-yl)-7H-pyrrolo[2,3-d] pyrimidin-4-amine]", "IC50": 507}
{"smiles": "CN(c1ncnc2[nH]ccc12)[C@H]1C[C@@H]2CN(C(=O)Nc3nc(C4CC4)ns3)C[C@@H]2C1", "note": "[Example 125, (3aR,5S,6aS)-N-(3-cyclopropyl-1,2,4-thiadiazol-5-yl)-5-(methyl(7H-pyrrolo[2,3-d]pyrimidin-4-yl)amino) hexahydrocyclopenta [c]pyrrole-2(1H)-carboxamide]", "IC50": 14}
{"smiles": "CN(c1ncnc2[nH]c(F)cc12)[C@H]1C[C@@H]2CN(C(=O)CO)C[C@@H]2C1", "note": "[Example 129, 1-((3aR,5S,6aS)-5-((6-fluoro-7H-pyrrolo[2,3-d]pyrimidin-4-yl)(methyl)amino)hexahydrocyclopenta[c]pyrrol-2(1H)-yl)-2-hydroxyethanone]", "IC50": 539}
{"tested_on": "human erythroid leukemia cell line TF-1", "assay": "Proliferation inhibition assay on TF-1 cells mediated by IL-4", "format": "cell-based", "conditions": "TF-1, 72 h, 10 ng/mL IL-4, 72 hours", "source_text": "as §1, §2, §3", "units": {"IC50": "nM"}}
{"smiles": "CN(c1ncnc2[nH]ccc12)[C@H]1C[C@@H]2CN(C(=O)CO)C[C@@H]2C1", "note": "[Example 6, 2-Hydroxy-1-((3aR,5S,6aS)-5-(methyl(7H-pyrrolo[2,3-d]pyrimidin-4-yl)amino)hexahydrocyclopenta[c]pyrrol-2(1H)-yl)ethanone]", "IC50": 457}
{"tested_on": "T cells", "assay": "Proliferation inhibition assay on T cells (PBMC, anti-CD3, IL-2)", "format": "cell-based, human", "conditions": "Homo sapiens, T-cell, 72 h, IL-2 10 ng/mL", "source_text": "(§4) The following in vitro assay is to determine the activity of the compounds of the present invention for inhibiting the proliferation of T cells.\n(§5) The activity is represented by the IC50 value.\n(§6) The general procedures of the assay are given as follows: first, the PBMC cell line (purchased from Shanghai Blood Center) was centrifuged, the supernatant was removed, and the cells counted. […] Then, the cells were washed 3 times, resuspended, diluted to 2×10^6/mL, and then mixed with recombinant human IL-2 (purchased from Peprotech, Catalog Number: 200-02) to a concentration of 10 ng/mL, and cultured for another 3 days. The cells were washed again 3 times, and diluted to 5×10^5/mL. 80 μL of the cells were seeded in each well of a 96-well cell culture plate. […] To he control wells, 10 μL culture medium were added. The plate was placed in an incubator. After incubating for 1 hr, negative control wells were mixed with 10 μL of culture medium, and the rest of the wells were mixed with IL-2 to a concentration of 10 ng/mL, and incubated continuously for 72 hours. […] IC50 values were calculated from the data of inhibition rates at various concentrations of the test compounds.", "units": {"IC50": "nM"}}
{"smiles": "CN(c1ncnc2[nH]ccc12)[C@H]1C[C@@H]2CN(C(=O)CO)C[C@@H]2C1", "note": "[Example 6, 2-Hydroxy-1-((3aR,5S,6aS)-5-(methyl(7H-pyrrolo[2,3-d]pyrimidin-4-yl)amino)hexahydrocyclopenta[c]pyrrol-2(1H)-yl)ethanone]", "IC50": 414}
{"smiles": "CN(c1ncnc2[nH]ccc12)[C@H]1C[C@@H]2CN(S(=O)(=O)C3CC3)C[C@@H]2C1", "note": "[Example 15, N-((3aR,5S,6aS)-2-(Cyclopropylsulfonyl)octahydrocyclopenta[c]pyrrol-5-yl)-N-methyl-7H-pyrrolo[2,3-d]pyrimidin-4-amine]", "IC50": 853}
{"smiles": "CN(c1ncnc2[nH]ccc12)[C@H]1C[C@@H]2CN(C(=O)CNS(C)(=O)=O)C[C@@H]2C1", "note": "[Example 21, N-(2-((3aR,5S,6aS)-5-(Methyl(7H-pyrrolo[2,3-d]pyrimidin-4-yl)amino)hexahydrocyclopenta[c]pyrrol-2(1H)-yl)-2-oxoethyl)methanesulfonamide]", "IC50": 892}
{"smiles": "COC(=O)CN1C[C@H]2C[C@H](N(C)c3ncnc4[nH]ccc34)C[C@H]2C1", "note": "[Example 24, Methyl 2-((3aR,5S,6aS)-5-(methyl(7H-pyrrolo[2,3-d]pyrimidin-4-yl)amino)hexahydrocyclopenta[c]pyrrol-2(1H)-yl)acetate]", "IC50": 851}
{"smiles": "CN(c1ncnc2[nH]ccc12)[C@H]1C[C@@H]2CN(CCC#N)C[C@@H]2C1", "note": "[Example 27, 3-((3 aR,5S,6aS)-5-(Methyl(7H-pyrrolo[2,3-d]pyrimidin-4-yl)amino)hexahydrocyclopenta[c]pyrrol-2(1H)-yl)propanenitrile]", "IC50": 253}
{"smiles": "CN(c1ncnc2[nH]ccc12)[C@H]1C[C@H]2CNC(=O)C[C@H]2C1", "note": "[Example 40, (4aR,6R,7aR)-6-(Methyl(7H-pyrrolo[2,3-d]pyrimidin-4-yl)amino) hexahydro-1H-cyclopenta[c]pyridin-3(2H)-one]", "IC50": 48}
{"smiles": "CN(c1ncnc2[nH]ccc12)[C@H]1C[C@@H]2CN(CC(F)(F)F)C[C@@H]2C1", "note": "[Example 56, N-methyl-N-((3aR,5S,6aS)-2-(2,2,2-trifluoroethyl)octahydrocyclopenta [c]pyrrol-5-yl)-7H-pyrrolo[2,3-d]pyrimidin-4-amine]", "IC50": 119}
{"smiles": "CN(c1ncnc2[nH]ccc12)[C@@H]1C[C@@H]2CN(CCC#N)C[C@@H]2C1", "note": "[Example 68, 3-((3aR,5R,6aS)-5-(methyl(7H-pyrrolo[2,3-d]pyrimidin-4-yl)amino)hexahydrocyclopenta[c]pyrrol-2(1H)-yl)propanenitrile]", "IC50": 824}
{"smiles": "CN(c1ncnc2[nH]ccc12)[C@@H]1CC2CNC(=O)CC2C1", "note": "(stereo partly drawn) [Example 148, (6S)-6-(methyl(7H-pyrrolo[2,3-d]pyrimidin-4-yl)amino) hexahydro-1H-cyclopenta[c] pyridin-3(2H)-one]", "IC50": 48}
{"tested_on": "T cells", "assay": "Proliferation inhibition assay on T cells (PBMC, anti-CD3, IL-2)", "format": "cell-based, human", "conditions": "Homo sapiens, T-cell; IL-2 10 ng/mL, 72 hours", "source_text": "as §4, §5, §6", "units": {"IC50": "nM"}}
{"smiles": "CN(c1ncnc2[nH]ccc12)[C@H]1C[C@@H]2CN(C(=O)CC#N)C[C@@H]2C1", "note": "[Example 8, 3-((3 aR,5S,6aS)-5-(Methyl(7H-pyrrolo[2,3-d]pyrimidin-4-yl)amino)hexahydrocyclopenta[c]pyrrol-2(1H)-yl)-3-oxopropanenitrile]", "IC50": 460}
{"smiles": "CC(=O)N1C[C@H]2C[C@H](N(C)c3ncnc4[nH]ccc34)C[C@H]2C1", "note": "[Example 11, 1-((3aR,5S,6aS)-5-(Methyl(7H-pyrrolo[2,3-d]pyrimidin-4-yl)amino)hexahydrocyclopenta[c]pyrrol-2(1H)-yl)ethanone]", "IC50": 705}
{"smiles": "CN(c1ncnc2[nH]ccc12)[C@H]1C[C@@H]2CN(C(=O)C3CC3)C[C@@H]2C1", "note": "[Example 13, Cyclopropyl((3aR,5S,6aS)-5-(methyl(7H-pyrrolo[2,3-d]pyrimidin-4-yl)amino)hexahydrocyclopenta[c]pyrrol-2(1H)-yl)methanone]", "IC50": 754}
{"smiles": "CN(c1ncnc2[nH]ccc12)[C@H]1C[C@@H]2CN(C(=O)CCC#N)C[C@@H]2C1", "note": "[Example 22, 4-((3aR,5S,6aS)-5-(Methyl(7H-pyrrolo[2,3-d]pyrimidin-4-yl)amino)hexahydrocyclopenta[c]pyrrol-2(1H)-yl)-4-oxobutanenitrile]", "IC50": 281}
{"smiles": "CN(c1ncnc2[nH]ccc12)[C@@H]1C[C@@H]2CN(C(=O)CO)C[C@@H]2C1", "note": "[Example 23, 2-Hydroxy-1-((3aR,5R,6aS)-5-(methyl(7H-pyrrolo[2,3-d]pyrimidin-4-yl)amino)hexahydrocyclopenta[c]pyrrol-2(1H)-yl)ethanone]", "IC50": 543}
{"smiles": "CCC(=O)N1C[C@H]2C[C@H](N(C)c3ncnc4[nH]ccc34)C[C@H]2C1", "note": "[Example 84, 1-((3aR,5S,6aS)-5-(methyl(7H-pyrrolo[2,3-d]pyrimidin-4-yl)amino)hexahydrocyclopenta[c]pyrrol-2(1H)-yl)propan-1-one]", "IC50": 509}
{"smiles": "COc1cncc(NC(=O)N2C[C@H]3C[C@H](N(C)c4ncnc5[nH]ccc45)C[C@H]3C2)c1", "note": "[Example 109, (3aR,5S,6aS)-N-(5-methoxypyridin-3-yl)-5-(methyl(7H-pyrrolo[2,3-d]pyrimidin-4-yl)amino)hexahydrocyclopenta[c] pyrrole-2(1H)-carboxamide]", "IC50": 762}
{"smiles": "CCc1nsc(NC(=O)N2C[C@H]3C[C@H](N(C)c4ncnc5[nH]ccc45)C[C@H]3C2)n1", "note": "[Example 121, (3aR,5S,6aS)-N-(3-ethyl-1,2,4-thiadiazol-5-yl)-5-(methyl(7H-pyrrolo[2,3-d]pyrimidin-4-yl)amino)hexahydrocyclopenta[c] pyrrole-2(1H)-carboxamide]", "IC50": 24}
{"smiles": "CN(c1ncnc2[nH]ccc12)[C@@H]1C[C@@H]2CCN(C(=O)Nc3nncs3)C[C@@H]2C1", "note": "[Example 150, (4aS,6R,7aR)-6-(methyl(7H-pyrrolo[2,3-d]pyrimidin-4-yl)amino)-N-(1,3,4-thiadiazol-2-yl)hexahydro-1H-cyclopenta[c]pyridine-2(3H)-carboxamide]", "IC50": 221}
{"tested_on": "T cells", "assay": "Proliferation inhibition assay on T cells (PBMC, anti-CD3, IL-2)", "format": "cell-based, human", "conditions": "IL-2 10 ng/mL, 72 hours; read-out: IC50(T cell)", "source_text": "as §4, §5, §6", "units": {"IC50": "nM"}}
{"smiles": "CN(c1ncnc2[nH]ccc12)[C@@H]1C[C@H]2CN(C(=O)CO)C[C@@]2(C)C1", "note": "(racemic) [Example 14, 2-Hydroxy-1-((3aS,5R,6aR/3aS,5R,6aR)-3a-methyl-5-(methyl(7H-pyrrolo[2,3-d]pyrimidin-4-yl)amino)hexahydrocyclopenta[c]pyrrol-2(1H)-yl)ethanone]", "IC50": 712}
